Columns and labels:
B-CLL cells = assay: cells; format: cell-based, human
Source text: Forty-six patients with B-CLL, seven patients with SMZL, two patients with lymphoproliferative disorder without a specific diagnosis, and four healthy donors were studied. All patients were diagnosed according to standard clinical and laboratory criteria. Written informed consent was obtained from all patients. Mononuclear cells from peripheral blood samples were isolated by centrifugation on a Ficoll/Hypaque (Seromed, Berlin, Germany) gradient and cryopreserved in liquid nitrogen in the presence of 10% dimethyl sulfoxide (DMSO).
Lymphocytes were cultured immediately after thawing at a concentration of 2 to 5×10^6 cells/ml in RPMI 1640 culture medium (Biological Industries, Beit Haemek, Israel) supplemented with 10% heat-inactivated fetal calf serum (Gibco-BRL, Paisley, GB), 1% glutamine, and 1% penicillin-streptomycin at 37° C. in a humidified atmosphere containing 5% carbon dioxide.
Apoptosis was measured by annexin V binding. Exposure of phosphatidylserine was quantified by surface annexin V staining as previously described (cf. B. Bellosillo et al., Blood 1998, vol. 92, pp. 1406-1414). To analyze apoptosis in T cells from the samples, 500,000 cells were incubated for 24 h with the indicated factors. Cells were then washed in phosphate-buffered saline (PBS) solution, and incubated in 50 μl of annexin binding buffer with APC-conjugated anti-CD3 and PE-conjugated anti-CD19 for 10 minutes in the dark. Cells were then diluted with annexin binding buffer to a volume of 250 μl and incubated with 0.5 μl of annexin V-FITC for 15 minutes in the dark. 250 μl of annexin binding buffer and 5 μl of PI were added just before flow cytometric analysis. Data were analyzed using Cell Quest software.
The effect of several doses of acadesine, ranging from 50 μM to 1 mM, on the viability of B-CLL cells, was studied. […] Cells from 5 patients were incubated for 24 h with various doses of acadesine as indicated.
Cells from 46 patients were incubated for 24 h with (+) or without (−) 0.5 mM acadesine. Viability (V) was measured by analysis of phosphatidylserine exposure and PI uptake, and it is expressed as the percentage of non apoptotic cells. All the patients were sensitive to acadesine and the viability decreased from 67±11% to 26±14% (n=46).

[1] = test system: CD3+/CD19- T cells from B-CLL patients; assay: Apoptosis/viability by flow cytometry, T cells from B-CLL samples; format: cell-based, human; conditions: 24 h
Source text: Forty-six patients with B-CLL, seven patients with SMZL, two patients with lymphoproliferative disorder without a specific diagnosis, and four healthy donors were studied. All patients were diagnosed according to standard clinical and laboratory criteria. Written informed consent was obtained from all patients. Mononuclear cells from peripheral blood samples were isolated by centrifugation on a Ficoll/Hypaque (Seromed, Berlin, Germany) gradient and cryopreserved in liquid nitrogen in the presence of 10% dimethyl sulfoxide (DMSO). […] Apoptosis was measured by annexin V binding. Exposure of phosphatidylserine was quantified by surface annexin V staining as previously described (cf. B. Bellosillo et al., Blood 1998, vol. 92, pp. 1406-1414). […] Data were analyzed using Cell Quest software. To analyze whether the induction of apoptosis in B-CLL patients was selective to B cells, we counted the apoptotic T cells (CD3 positive cells) in four B-CLL blood samples treated for 24 h with several doses of acadesine. […] Viability (V) was measured as non apoptotic CD3+/CD19− T cells (empty symbols) or CD3−/CD19+B cells (full symbols), and it is expressed as the percentage of the viability of non treated cells. […] Viability is expressed as the mean value ± standard deviation.

[2] = test system: B cells from healthy donors; assay: Apoptosis/viability by flow cytometry, B cells from healthy donors; format: cell-based, human; conditions: 0.5 mM, 24 h, 4 healthy donors
Source text: (§1) Forty-six patients with B-CLL, seven patients with SMZL, two patients with lymphoproliferative disorder without a specific diagnosis, and four healthy donors were studied. All patients were diagnosed according to standard clinical and laboratory criteria. Written informed consent was obtained from all patients. Mononuclear cells from peripheral blood samples were isolated by centrifugation on a Ficoll/Hypaque (Seromed, Berlin, Germany) gradient and cryopreserved in liquid nitrogen in the presence of 10% dimethyl sulfoxide (DMSO). Lymphocytes were cultured immediately after thawing at a concentration of 2 to 5×10^6 cells/ml in RPMI 1640 culture medium (Biological Industries, Beit Haemek, Israel) supplemented with 10% heat-inactivated fetal calf serum (Gibco-BRL, Paisley, GB), 1% glutamine, and 1% penicillin-streptomycin at 37° C. in a humidified atmosphere containing 5% carbon dioxide. Apoptosis was measured by annexin V binding. Exposure of phosphatidylserine was quantified by surface annexin V staining as previously described (cf. B. Bellosillo et al., Blood 1998, vol. 92, pp. 1406-1414). To analyze apoptosis in T cells from the samples, 500,000 cells were incubated for 24 h with the indicated factors. […] Data were analyzed using Cell Quest software. […] Viability is expressed as the mean value ± standard deviation.

[3] = test system: B cells from patients with SMZL; assay: Apoptosis/viability by flow cytometry, B cells from SMZL patients; format: cell-based, human; conditions: 0.5 mM and 1.0 mM, 24 h, seven SMZL patients
Source text: as §1, with “1406-1414).” for “1406-1414). To analyze apoptosis in T cells from the samples, 500,000 cells were incubated for 24 h with the indicated factors.”, “Viability (V) was measured by analysis of phosphatidylserine exposure and PI uptake, and it” for “Viability”, “percentage of non apoptotic cells. […]” for “mean value ± standard deviation.”

[4] = test system: B cells from patients with lymphoproliferative disorder without a specific diagnosis; assay: Apoptosis/viability by flow cytometry, B cells, lymphoproliferative disorder without a specific diagnosis; format: cell-based, human; conditions: 0.5 mM and 1.0 mM, 24 h, two patients
Source text: as §1, with “1406-1414).” for “1406-1414). To analyze apoptosis in T cells from the samples, 500,000 cells were incubated for 24 h with the indicated factors.”, “Viability (V) was measured by analysis of phosphatidylserine exposure and PI uptake, and it” for “Viability”, “percentage of non apoptotic cells. […]” for “mean value ± standard deviation.”

Jurkat (T cell line) = assay: Effects of acadesine in cell lines: Jurkat; format: cell-based
Source text: (§2) Another important advantage of the invention is the selectivity and the concentration of acadesine necessary to induce apoptosis. […] This means that the possible side effects coming from damaging other cellular types are minor when using acadesine as a therapeutical agent.

JVM-2 = assay: Effects of acadesine in cell lines: JVM-2; format: cell-based
Source text: as §2

[5] = test system: MCF-7 (breast cancer line); assay: Effects of acadesine in cell lines: MCF-7; format: cell-based
Source text: as §2

293 = assay: Effects of acadesine in cell lines: 293; format: cell-based
Source text: as §2

[6] = test system: Hela (cervix cancer line); assay: Effects of acadesine in cell lines: Hela; format: cell-based
Source text: as §2

HUH7 (liver cancer line) = assay: Effects of acadesine in cell lines: HUH7; format: cell-based
Source text: as §2

[7] = healthy individuals, given intravenously; cited from earlier work

NC(=O)c1ncn([C@@H]2O[C@H](CO)[C@@H](O)[C@H]2O)c1N [acadesine, 5-amino-1-β-D-ribofuranosyl-1H-imidazole-4-carboxamide]
Viability of B cells (B-CLL cells; 0.5 mM, 24 h, 18 B-CLL patients): markedly reduced
Induction of apoptosis (B-CLL cells; 24 h incubation, doses 50 μM to 1 mM, cells from 5 patients): induced apoptosis in a dose-dependent manner
viability at 500 µM (B-CLL cells; Homo sapiens, B-CLL, 24 h, read-out: Viability (percentage of non apoptotic cells)): 26 ± 14%
EC50 (B-CLL cells; Homo sapiens, B-CLL, 24 h incubation, 50 μM to 1 mM, cells from 5 patients (n=5), read-out: EC50 (viability of B-CLL cells)): 380 ± 60 µM
Acadesine-induced apoptosis in T cells ([1]; doses up to 1 mM, four B-CLL blood samples): resistant to acadesine-induced apoptosis
Viability of T cells ([1]; higher concentrations 2-4 mM): only slightly affected the viability
Viability of B cells [2]: markedly reduced
Viability of B cells [3]: markedly reduced
Viability of B cells [4]: markedly reduced
Sensitivity to acadesine relative to B-CLL cells (Jurkat (T cell line)): less sensitive to acadesine than B-CLL cells
Sensitivity to acadesine relative to B-CLL cells (JVM-2): less sensitive to acadesine than B-CLL cells
Sensitivity to acadesine relative to B-CLL cells [5]: less sensitive to acadesine than B-CLL cells
Sensitivity to acadesine relative to B-CLL cells 293: less sensitive to acadesine than B-CLL cells
Sensitivity to acadesine relative to B-CLL cells [6]: less sensitive to acadesine than B-CLL cells
Sensitivity to acadesine relative to B-CLL cells (HUH7 (liver cancer line)): less sensitive to acadesine than B-CLL cells
Concentrations in plasma [7]: 200 µM
Tolerability [7]: well tolerated

— patent publication US7560435B2, “Therapeutic use of riboside of 5-aminoimidazole-4-carboxamide (acadesine)” (Advanced In Vitro Cell Technologies, S. A., priority 2002, dated 2009)
